The values that follow come from patent publication US20110224215A1, “PRE-SURGICAL TREATMENT” (GALDERMA LABORATORIES, INC., priority 2007, published 2011).

Experiment [1] has as its system patients undergoing LASIK surgery. The settings on record: prophylactic dosages prior to LASIK surgery for primary myopia/myopic astigmatism or hyperopic astigmatism; cited from earlier work.
Experiment [2] relates to area of skin where the incision will be made. To be noted: bandage soaked in a solution of 0.25%, applied thirty minutes prior to surgery, removed immediately before incision. The text has this:
Thirty minutes prior to undergoing surgery for an appendectomy, a bandage that is soaked in a solution of 0.25% brimonidine is applied to the area of skin where the incision will be made. The bandage is removed immediately before the incision is made.

Another experiment has as its system facial skin. To be noted: 0.10% in a gel formulation, applied to facial skin fifteen minutes prior to shaving. The text has this: Fifteen minutes prior to shaving, a person applies 0.10% brimonidine tartrate in a gel formulation to the facial skin where they will shave.

Take `Brc1c(N=C2NCCN2)ccc2nccnc12` [brimonidine, 5-bromo-6-(2-imidazolidinylideneamino)quinoxaline]: in experiment [1], the hyperemia result is recorded as “less hyperemia” and the “occurrence of subconjunctival hemorrhage” value is “less occurrence”. Further, the “bleeding and bruising following the surgical procedure” value in experiment [2] was “will significantly reduce bleeding and bruising”.
Take `Brc1c(N=C2NCCN2)ccc2nccnc12.O=C(O)C(O)C(O)C(=O)O` [brimonidine tartrate, 5-bromo-6-(2-imidazolidinylideneamino) quinoxaline L-tartrate]: the “bleeding from cuts while shaving” value with facial skin was “will prevent excessive bleeding”.
